According to patent US8613927B2, “High affinity human antibodies to human nerve growth factor” (Regeneron Pharmaceuticals, Inc., priority 2007, dated 2013):

How the values were obtained:
C57BL/6 male mice = assay: Seltzer model of neuropathic pain, Hargreaves' test; type: in vivo, mouse
Description: Neuropathic pain. The mouse Seltzer model of neuropathic pain (Malmberg et al. (1998) Pain 76:215-222) was used with C57BL/6 male mice, in which a partial nerve injury was produced by tying a tight ligature with a 7-0 silk suture around approximately ⅓ to ½ the diameter of the sciatic nerve of one single thigh per mouse. Post-surgery, the mice were allowed to recover for at least two days and then they were studied for several weeks post-surgery for thermal hyperalgesia in the Hargreaves' test. Controls were sham-operated mice in which the sciatic nerve was exposed and elevated but not tied. Following surgery, the mice were tested at day […] and at day 7 post-surgery to confirm that the thermal hyperalgesia had developed.
Following the Seltzer surgery, mice were tested at days 5 and 7 post-surgery to confirm that the thermal hyperalgesia had developed.

[1] = biological target: Human NGF binding to human p75-hFc (Homo sapiens, UniProt P01138, DEL136-138/DEL208-209); assay: BIACORE receptor blocking assay, free NGF bound to p75-hFc; conditions: percentage free NGF bound; NGF 10-25 nM with molar excess of antibody; NGF alone = 100%
Description: To identify blocking antibodies, a receptor blocking assay was designed using a BIACORE™ 3000 instrument. Recombinant human TrkA-hFc and human p75-hFc proteins were amine-coupled to a CM5 chip to a density of about 5000-6000 RU.

[2] = biological target: T1, human NT-3 binding to human TrkB-hFc (Homo sapiens, UniProt P20783); assay: BIACORE, NT-3 binding to TrkB-hFc surface in presence of antibody; conditions: 20 nM NT-3 + 500 nM sample; normalized to IgG1 control
T1 sequence (P20783 139-257): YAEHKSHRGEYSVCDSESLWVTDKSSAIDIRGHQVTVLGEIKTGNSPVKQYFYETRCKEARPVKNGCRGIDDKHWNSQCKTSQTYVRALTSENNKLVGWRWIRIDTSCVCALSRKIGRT
Protocol: (§1) Human TrkA-hFc (9300 RU), human TrkB-hFc (6000 RU), human TrkC-hFc (9100 RU) and human p75-hFc (7500 RU) were covalently coupled to BIACORE® CM5 chip surfaces by amine-coupling procedure. […] The binding mixture was first incubated at room temperature to reach equilibrium (about 1 hr) and then was injected over the above TrkA-hFc, TrkB-hFc, TrkC-hFc and p75-hFc surfaces. The level of human NT-3 binding in each sample was measured. The binding RU from each sample mixture was normalized according to the RU value from the negative control sample (i.e., 20 nM human NT-3 with 500 nM AVASTIN®) and presented as % binding to Trk surfaces (Table 9).

[3] = biological target: T2, human NT-3 binding to human p75-hFc (Homo sapiens, UniProt P20783); assay: BIACORE, NT-3 binding to p75-hFc surface in presence of antibody; conditions: 20 nM NT-3 + 500 nM sample; normalized to IgG1 control
T2 sequence (P20783 139-257): T1 sequence (P20783 139-257)
Protocol: as §1

[4] = biological target: T3, human NT-3 binding to human TrkC-hFc (Homo sapiens, UniProt P20783); assay: BIACORE, NT-3 binding to TrkC-hFc surface in presence of antibody; conditions: 20 nM NT-3 + 500 nM sample; normalized to IgG1 control
T3 sequence (P20783 139-257): T1 sequence (P20783 139-257)
Protocol: as §1

C57BL/6 mice [5] = assay: Post-operative incision pain model, mechanical allodynia in von Frey test; type: in vivo, mouse; conditions: Table 17
Protocol: (§2) Thermal hyperalgesia was studied in the Hargreaves' test and mechanical allodynia was tested in the von Frey test. In this latter test, mice were tested after being acclimated for 2-3 hours for 4 days in an apparatus with a wire mesh floor. The test was performed by applying, in ascending order, a series of von Frey hairs through the wire mesh onto the plantar surface of the hind paw with the incision. A response was considered positive if the paw was raised from the platform in response to application of the filament. Starting from the thinnest hair, each von Frey filament was applied up to five times until a response was observed.

C57BL/6 mice [6] = assay: Post-operative incision pain model, thermal hyperalgesia in Hargreaves' test; type: in vivo, mouse; conditions: for mean percent change from Hargreaves baseline: Table 14; for Hargreaves' test result (thermal hyperalgesia): Table 16
Protocol: Post-operative incision pain model. […] For the plantar incision surgery, C57BL/6 mice under isoflurane received an incision through skin, fascia and then isolating the underlying flexor muscle and bisecting vertically. After suture and recovery, the mice were tested for thermal hyperalgesia in the Hargreaves' test and for guarding behavior in the weight bearing test (model 600, IITC Life Science) for 5 days.
as §2

[7] = biological target: T4, human NT-3 binding to human TrkA-hFc (Homo sapiens, UniProt P20783); assay: BIACORE, NT-3 binding to TrkA-hFc surface in presence of antibody; conditions: 20 nM NT-3 + 500 nM sample; normalized to IgG1 control
T4 sequence (P20783 139-257): T1 sequence (P20783 139-257)
Protocol: as §1

[8] = 25 mg/kg i.p. on day 1 post-surgery, Baseline
[9] = 25 mg/kg i.p., Day 1 (post-surgery, before injection)

Sequence of Human NGF binding to human p75-hFc (P01138 with tags, fused parts or gaps DEL136-138/DEL208-209): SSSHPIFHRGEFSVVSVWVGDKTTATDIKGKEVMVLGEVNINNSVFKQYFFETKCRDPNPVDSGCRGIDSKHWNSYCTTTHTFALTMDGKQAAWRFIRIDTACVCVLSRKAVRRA

## tanezumab [RN624]
C57BL/6 male mice; 50 mg/kg s.c. or i.p. at day 7 post-surgery, p<0.001-0.05
  pain relief: Significant pain relief was observed
C57BL/6 male mice; Table 25, 50 mg/kg s.c. at day 7, day 5 after surgery
  mean percent change from Hargreaves baseline: −53.5 ± 6.3%
C57BL/6 male mice; Table 25, 50 mg/kg s.c. at day 7, day 7
  mean percent change from Hargreaves baseline: −48.4 ± 6.2%
C57BL/6 male mice; Table 25, 50 mg/kg s.c. at day 7, day 8
  mean percent change from Hargreaves baseline: 4.5 ± 9.0%
C57BL/6 male mice; Table 25, 50 mg/kg s.c. at day 7, day 9
  mean percent change from Hargreaves baseline: −15.2 ± 8.5%
C57BL/6 male mice; Table 25, 50 mg/kg s.c. at day 7, day 12
  mean percent change from Hargreaves baseline: −4.2 ± 12.0%
C57BL/6 male mice; Table 25, 50 mg/kg s.c. at day 7, day 15
  mean percent change from Hargreaves baseline: 2.1 ± 10.9%
C57BL/6 male mice; Table 25, 50 mg/kg s.c. at day 7, day 19
  mean percent change from Hargreaves baseline: −11.5 ± 12.1%
C57BL/6 male mice; Table 25, 50 mg/kg s.c. at day 7, day 22
  mean percent change from Hargreaves baseline: −5.7 ± 9.5%
C57BL/6 male mice; Table 25, 50 mg/kg s.c. at day 7 post-surgery, Baseline
  mean percent change from Hargreaves baseline: 0.0 ± 0.0%
C57BL/6 male mice; Table 26, 50 mg/kg i.p. at day 7, day 5 after surgery
  mean percent change from Hargreaves baseline: −56.6 ± 2.3%
C57BL/6 male mice; Table 26, 50 mg/kg i.p. at day 7, day 7
  mean percent change from Hargreaves baseline: −62.3 ± 3.4%
C57BL/6 male mice; Table 26, 50 mg/kg i.p. at day 7, day 8
  mean percent change from Hargreaves baseline: −3.3 ± 16.0%
C57BL/6 male mice; Table 26, 50 mg/kg i.p. at day 7, day 9
  mean percent change from Hargreaves baseline: −18.4 ± 12.9%
C57BL/6 male mice; Table 26, 50 mg/kg i.p. at day 7, day 12
  mean percent change from Hargreaves baseline: −7.0 ± 11.8%
C57BL/6 male mice; Table 26, 50 mg/kg i.p. at day 7, day 15
  mean percent change from Hargreaves baseline: −16.2 ± 14.8%
C57BL/6 male mice; Table 26, 50 mg/kg i.p. at day 7 post-surgery, Baseline
  mean percent change from Hargreaves baseline: 0.0 ± 0.0%
[1]
  % Binding p75-hFc: 16%
[2]
  % binding to TrkB-hFc surface: 8%
[3]
  % binding to p75-hFc surface: 19%
[4]
  % binding to TrkC-hFc surface: 8%
C57BL/6 mice [5]; [8]
  Paw Withdrawal Threshold: 1.314 ± 0.137 g
C57BL/6 mice [5]; 25 mg/kg i.p., 5 hr after treatment
  Paw Withdrawal Threshold: 0.083 ± 0.053 g
C57BL/6 mice [5]; 25 mg/kg i.p., 22 hr after treatment
  Paw Withdrawal Threshold: 0.610 ± 0.123 g
C57BL/6 mice [5]; 25 mg/kg i.p., 45 hr after treatment
  Paw Withdrawal Threshold: 0.909 ± 0.216 g
C57BL/6 mice [5]; 25 mg/kg i.p., 70 hr after treatment
  Paw Withdrawal Threshold: 1.143 ± 0.189 g
C57BL/6 mice [5]; [9]
  Paw Withdrawal Threshold: 0.010 ± 0.002 g
C57BL/6 mice [6]; 10 mg/kg s.c. 1 hr prior to incision, p<0.001-0.05
  reduction of post-operative pain vs vehicle, Hargreaves' test: significantly reduced the post-operative pain
C57BL/6 mice [6]; 25 mg/kg i.p. on day 1 post-surgery, by 72 hours, p<0.001-0.01
  reversal of thermal hyperalgesia: return to baseline was not observed
C57BL/6 mice [6]; 10 mg/kg s.c. 1 hr prior to incision, Baseline, ±SEM
  mean percent change from Hargreaves baseline: 0.00 ± 0.0%
C57BL/6 mice [6]; 10 mg/kg s.c. pre-incision, Day 1 after surgery
  mean percent change from Hargreaves baseline: −62.5 ± 10.6%
C57BL/6 mice [6]; 10 mg/kg s.c. pre-incision, Day 2 after surgery
  mean percent change from Hargreaves baseline: −55.2 ± 9.4%
C57BL/6 mice [6]; 10 mg/kg s.c. pre-incision, Day 3 after surgery
  mean percent change from Hargreaves baseline: −5.3 ± 12.1%
C57BL/6 mice [6]; 10 mg/kg s.c. pre-incision, Day 4 after surgery
  mean percent change from Hargreaves baseline: −6.4 ± 8.7%
C57BL/6 mice [6]; 10 mg/kg s.c. pre-incision, Day 5 after surgery
  mean percent change from Hargreaves baseline: −5.3 ± 5.6%
C57BL/6 mice [6]; [8]
  Hargreaves' test result (thermal hyperalgesia): 0.0 ± 0.0
C57BL/6 mice [6]; 25 mg/kg i.p., 6 hr after treatment
  Hargreaves' test result (thermal hyperalgesia): −68.1 ± 5.2
C57BL/6 mice [6]; 25 mg/kg i.p., 23 hr after treatment
  Hargreaves' test result (thermal hyperalgesia): −40.5 ± 8.9
C57BL/6 mice [6]; 25 mg/kg i.p., 47 hr after treatment
  Hargreaves' test result (thermal hyperalgesia): −37.6 ± 7.2
C57BL/6 mice [6]; 25 mg/kg i.p., 72 hr after treatment
  Hargreaves' test result (thermal hyperalgesia): −47.2 ± 8.0
C57BL/6 mice [6]; [9]
  Hargreaves' test result (thermal hyperalgesia): −74.7 ± 4.3
[7]
  % binding to TrkA-hFc surface: 7%
